Measured values published in patent US8057806B2 (priority 2000, dated 2011).

Tests used:
viral replication = conditions: cited from earlier work
wild-type WSN-UdM virus = type: cell-based, influenza A virus

## NC12CC3CC(CC(C3)C1)C2 [amantadine]
Viral replication
  concentrations at which the drug selectively inhibits viral replication: 0.1 to 5 µM
  concentrations of nonspecific action (increase in pH of endosomes): > 50 μM
wild-type WSN-UdM virus
  effect on virus yield and size of plaques: markedly reduced
